Where “and” joins values, the source holds several entries; their conditions need not be identical. Equal entries are not always repeated. Where two headings read alike, the source gives them in different places.
Experiments:
[1] = molecular target: T1, gp130 extracellular domain (recombinant gp130-Fc-HA) (Homo sapiens, UniProt P40189); experiment: Surface plasmon resonance direct binding to gp130-Fc-HA
T1 construct: purified gp130 (amino residue 18-615); made in house; host or cells: HEK293T (plasmid from Dr. John J. Krolewski)
T1 sequence (P40189 18-615): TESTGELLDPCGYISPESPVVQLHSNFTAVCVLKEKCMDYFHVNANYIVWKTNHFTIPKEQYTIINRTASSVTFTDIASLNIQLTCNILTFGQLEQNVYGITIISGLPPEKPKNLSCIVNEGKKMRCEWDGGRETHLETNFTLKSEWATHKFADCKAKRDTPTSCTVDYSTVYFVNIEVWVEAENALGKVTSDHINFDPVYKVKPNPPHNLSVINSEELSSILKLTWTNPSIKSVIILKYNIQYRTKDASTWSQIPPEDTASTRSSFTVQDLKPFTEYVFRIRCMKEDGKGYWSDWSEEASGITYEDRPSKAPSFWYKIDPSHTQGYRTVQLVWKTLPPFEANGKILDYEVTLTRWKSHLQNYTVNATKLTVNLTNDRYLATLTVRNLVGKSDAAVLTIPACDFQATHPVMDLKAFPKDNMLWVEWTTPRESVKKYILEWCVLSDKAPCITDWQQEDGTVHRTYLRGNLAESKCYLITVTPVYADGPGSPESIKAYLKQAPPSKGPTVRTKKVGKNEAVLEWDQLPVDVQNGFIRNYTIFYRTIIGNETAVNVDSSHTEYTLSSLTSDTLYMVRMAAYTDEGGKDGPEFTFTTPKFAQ
Method: HEK293T cells were grown in media containing DMEM+10% fetal bovine serum (FBS),100 U/ml penicillin and […] streptomycin (Invitrogen) in a humidified 37° C. incubator with 5% CO2. Plasmid DNA expressing gp130-Fc-HA was transfected in the form of calcium phosphate precipitate into HEK293T cells (ten T75 flasks containing 5.5×10^6 cells). The supernatant was harvested sixty hours post transfection and centrifuged to remove residual cells and adjusted to pH 8.0. The supernatant was passed through a 0.45 μm filter. The gp130-Fc-HA tagged protein was immunoprecipitated using anti-HA affinity matrix (Roche Applied Bioscience).A one milliliter column containing anti-HA affinity matrix was equilibrated with 20 mM Tris-HCl, 0.1M NaCl, 0.1 mM EDTA (pH 8.0). The supernatant was applied to the equilibrated column and the column was washed successively with 20 mM Tris-HCl, 1M NaCl (pH 8.0). Bound protein was eluted with HA peptide dissolved in equilibration buffer. The column was regenerated with 0.1 M glycine (pH 2.0). Fractions containing recombinant protein were pooled, dialyzed against HBS buffer [10 mM HEPES (pH 7.4), 0.15 M NaCl, 3 mM EDTA, 0.005% P20] and concentrated by Centricon 30 (Amicon) centrifugation. Protein concentration was determined using Bradford protein assay reagent (Pierce), with bovine serum albumin (BSA, Fisher Scientific) as a standard. The purified recombinant gp130 protein was analyzed using SDS-PAGE and immunoblotting.
Surface plasmon resonance (SPR) analysis was performed using BIAcore T100. Recombinant gp130-Fc-HA was cross-linked to the flow cell on a carboxymethylated dextran matrix of a CM5 sensor chip (BIAcore) using standard amino group coupling methods according to the manufacturer's instructions. Sodium acetate (10 mM, pH 3.5) gave the best immobilization of the protein on the chip surface and unreactive groups on the chip were blocked by ethanolamine according to the manufacturer's instructions. Approximately 5000 resonance units (RU) of gp130-Fc-HA were cross-linked to the flow cell. HBS+1% DMSO were used in all buffers (running and sample) to avoid background response due to differences in buffer refractive index. For the equilibrium analysis, various concentrations of MDL-A, 1, and 2 were injected for a period of 2 min at a flow rate of 30 μl/min, in series, into flow cells containing covalently bound gp130-fc-HA and reference flow cell. Bound ligand (MDL-A, 1, and 2) in each assay was removed by passing 10 mM glycine (pH 2.2) over the chip surface. Biacore T100 Evaluation 2.0 was used for all interaction analyses. The steady-state equilibrium response (RUeq) was determined from the reference-subtracted sensogram. The kinetics parameter was calculated according to a 1:1 Langmuir binding model (A+B ? AB) by direct fitting of ligand binding sensor grams at multiple concentrations. The dissociation equilibrium constant is defined as dissociation constant (KD)=dissociation rate constant (kd)/association rate constant (ka). KD was determined by scattered analysis of equilibrium-state data obtained at different concentrations of analogues.
To examine the direct binding and calculation of equilibrium dissociation constant (KD) of MDL-A analogues with gp130 extracellular domain, surface plasmon resonance analysis was done. Protein was covalently cross linked to the dextran matrix of the biosensor chip CM5. Successively, various concentrations of MDL-A and MDL-A analogues were injected into the flow cells containing bound protein and no protein (reference). Interactions were monitored in real time and KD values were calculated by reference-substrated sensogram.
To examine the direct binding and calculate the equilibrium dissociation constant (KD) of MDL-A analogues with gp130 extracellular domain, surface plasmon resonance analysis was performed. Surface plasmon resonance (SPR) analysis was performed using a BIAcore T100. […]

[2] = test system: IL-6-dependent murine hepatoma cell line MH60; conditions: Omura and coworkers; cited from earlier work
[3] = test system: IL-6-dependent STAT3 tyrosine phosphorylation in HepG2 cells; conditions: Saleh and coworkers; cited from earlier work

CCCCC1=C(C)C(=O)[C@@](C)(CN2c3ccccc3[C@]3(O)CCO[C@H]23)C1=O [MDL-A, (+)-Madindoline A, reference compound]
Kd ([1]; gp130 extracellular domain, Biacore evaluation software 2.0, read-out: KD): 288 µM
Kd ([1]; values in running text and figure legend, read-out: dissociation constant (KD)): ~300 µM and ~290 µM
growth of IL-6-dependent MH60 cells [2]: specifically inhibited the growth
IL-6-dependent STAT3 tyrosine phosphorylation [3]: inhibits IL-6-dependent STAT3 tyrosine phosphorylation
